# Source: the supplement of paper PMC10307832
# Key:
# Test in all cases: relative viability (nuclei count vs DMSO), 5 days (fraction); higher = more cells survive
# NCI-H460 = system: NCI-H460
# How it was run: (§1)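 Medians of duplicate plates are given as relative viability. That measure is the nuclei count in treated wells divided by the count in vehicle wells. Counts were taken on 4× images of lung cancer cell lines in 1536-well plates, 5 days after pin-tool dosing the day after seeding with one drug alone or a fixed anchor-drug dose plus five library-drug doses (not always all listed) in √10 steps.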
# NCI-H1915 = system: NCI-H1915
# How it was run: as §1
# NCI-H1792 = system: NCI-H1792
# How it was run: as §1
# SW 1573 = system: SW 1573
# How it was run: as §1
# HOP-62 = system: HOP-62
# How it was run: as §1
# HCC-827 = system: HCC-827
# How it was run: as §1
# LCLC-103H = system: LCLC-103H
# How it was run: as §1
# NCI-H727 = system: NCI-H727
# How it was run: as §1
# NCI-H1437 = system: NCI-H1437
# How it was run: as §1
# HCC-366 = system: HCC-366
# How it was run: as §1
# NCI-H1975 = system: NCI-H1975
# How it was run: as §1
# NCI-H522 = system: NCI-H522
# How it was run: as §1
# HARA = system: HARA
# How it was run: as §1
# CAL-12T = system: CAL-12T
# How it was run: as §1
# COR-L 105 = system: COR-L 105
# How it was run: as §1
# NCI-H1395 = system: NCI-H1395
# How it was run: as §1
# NCI-H2009 = system: NCI-H2009
# How it was run: as §1
# SK-LU-1 = system: SK-LU-1
# How it was run: as §1
# A-427 = system: A-427
# How it was run: as §1
# EMC-BAC-2 = system: EMC-BAC-2
# How it was run: as §1
# NCI-H1755 = system: NCI-H1755
# How it was run: as §1
# NCI-H2228 = system: NCI-H2228
# How it was run: as §1
# NCI-H1355 = system: NCI-H1355
# How it was run: as §1
# NCI-H23 = system: NCI-H23
# How it was run: as §1
structure (smiles),measurement,setting,value
Clc1ccc(Nc2nnc(Cc3ccncc3)c3ccccc23)cc1 [Vatalanib] + N=C(N)NC(=N)NCCc1ccccc1 [Phenformin] (partner 250 µM),relative viability,NCI-H460; first compound 0.04 µM,0.582
same,relative viability,NCI-H460; first compound 0.1265 µM,0.539
same,relative viability,NCI-H460; first compound 0.4 µM,0.556
same,relative viability,NCI-H460; first compound 1.265 µM,0.51
same,relative viability,NCI-H460; first compound 4 µM,0.432
same,relative viability,NCI-H1915; first compound 0.04 µM,0.374
same,relative viability,NCI-H1915; first compound 0.1265 µM,0.345
same,relative viability,NCI-H1915; first compound 0.4 µM,0.399
same,relative viability,NCI-H1915; first compound 1.265 µM,0.38
same,relative viability,NCI-H1915; first compound 4 µM,0.371
same,relative viability,NCI-H1792; first compound 0.04 µM,0.257
same,relative viability,NCI-H1792; first compound 0.4 µM,0.224
same,relative viability,NCI-H1792; first compound 1.265 µM,0.236
same,relative viability,NCI-H1792; first compound 4 µM,0.386
same,relative viability,SW 1573; first compound 0.04 µM,0.402
same,relative viability,SW 1573; first compound 0.1265 µM,0.374
same,relative viability,SW 1573; first compound 0.4 µM,0.368
same,relative viability,SW 1573; first compound 1.265 µM,0.324
same,relative viability,SW 1573; first compound 4 µM,0.347
same,relative viability,HOP-62; first compound 0.04 µM,0.668
same,relative viability,HOP-62; first compound 0.1265 µM,0.65
same,relative viability,HOP-62; first compound 0.4 µM,0.649
same,relative viability,HOP-62; first compound 1.265 µM,0.624
same,relative viability,HOP-62; first compound 4 µM,0.633
same,relative viability,HCC-827; first compound 0.04 µM,0.413
same,relative viability,HCC-827; first compound 0.1265 µM,0.418
same,relative viability,HCC-827; first compound 0.4 µM,0.304
same,relative viability,HCC-827; first compound 1.265 µM,0.425
same,relative viability,HCC-827; first compound 4 µM,0.378
same,relative viability,LCLC-103H; first compound 0.04 µM,0.339
same,relative viability,LCLC-103H; first compound 0.1265 µM,0.306
same,relative viability,LCLC-103H; first compound 0.4 µM,0.373
same,relative viability,LCLC-103H; first compound 1.265 µM,0.363
same,relative viability,LCLC-103H; first compound 4 µM,0.316
same,relative viability,NCI-H727; first compound 0.04 µM,0.531
same,relative viability,NCI-H727; first compound 0.1265 µM,0.572
same,relative viability,NCI-H727; first compound 0.4 µM,0.519
same,relative viability,NCI-H727; first compound 1.265 µM,0.558
same,relative viability,NCI-H727; first compound 4 µM,0.466
same,relative viability,NCI-H1437; first compound 0.04 µM,0.341
same,relative viability,NCI-H1437; first compound 0.1265 µM,0.281
same,relative viability,NCI-H1437; first compound 0.4 µM,0.298
same,relative viability,NCI-H1437; first compound 1.265 µM,0.247
same,relative viability,NCI-H1437; first compound 4 µM,0.273
same,relative viability,HCC-366; first compound 0.04 µM,0.597
same,relative viability,HCC-366; first compound 0.1265 µM,0.554
same,relative viability,HCC-366; first compound 0.4 µM,0.6
same,relative viability,HCC-366; first compound 1.265 µM,0.575
same,relative viability,HCC-366; first compound 4 µM,0.547
same,relative viability,NCI-H1975; first compound 0.04 µM,0.405
same,relative viability,NCI-H1975; first compound 0.1265 µM,0.415
same,relative viability,NCI-H1975; first compound 0.4 µM,0.422
same,relative viability,NCI-H1975; first compound 1.265 µM,0.357
same,relative viability,NCI-H1975; first compound 4 µM,0.4
same,relative viability,NCI-H522; first compound 0.04 µM,0.699
same,relative viability,NCI-H522; first compound 0.1265 µM,0.531
same,relative viability,NCI-H522; first compound 0.4 µM,0.673
same,relative viability,NCI-H522; first compound 1.265 µM,0.623
same,relative viability,NCI-H522; first compound 4 µM,0.597
same,relative viability,HARA; first compound 0.04 µM,0.452
same,relative viability,HARA; first compound 0.1265 µM,0.397
same,relative viability,HARA; first compound 0.4 µM,0.497
same,relative viability,HARA; first compound 1.265 µM,0.42
same,relative viability,HARA; first compound 4 µM,0.354
same,relative viability,CAL-12T; first compound 0.04 µM,0.633
same,relative viability,CAL-12T; first compound 0.1265 µM,0.495
same,relative viability,CAL-12T; first compound 0.4 µM,0.328
same,relative viability,CAL-12T; first compound 1.265 µM,0.539
same,relative viability,CAL-12T; first compound 4 µM,0.567
same,relative viability,COR-L 105; first compound 0.04 µM,0.469
same,relative viability,COR-L 105; first compound 0.1265 µM,0.37
same,relative viability,COR-L 105; first compound 0.4 µM,0.475
same,relative viability,COR-L 105; first compound 1.265 µM,0.45
same,relative viability,COR-L 105; first compound 4 µM,0.423
same,relative viability,NCI-H1395; first compound 0.04 µM,0.441
same,relative viability,NCI-H1395; first compound 0.1265 µM,0.419
same,relative viability,NCI-H1395; first compound 0.4 µM,0.437
same,relative viability,NCI-H1395; first compound 1.265 µM,0.399
same,relative viability,NCI-H1395; first compound 4 µM,0.449
same,relative viability,NCI-H2009; first compound 0.04 µM,0.578
same,relative viability,NCI-H2009; first compound 0.1265 µM,0.439
same,relative viability,NCI-H2009; first compound 0.4 µM,0.464
same,relative viability,NCI-H2009; first compound 1.265 µM,0.406
same,relative viability,NCI-H2009; first compound 4 µM,0.391
same,relative viability,SK-LU-1; first compound 0.04 µM,0.631
same,relative viability,SK-LU-1; first compound 0.1265 µM,0.462
same,relative viability,SK-LU-1; first compound 0.4 µM,0.663
same,relative viability,SK-LU-1; first compound 1.265 µM,0.494
same,relative viability,SK-LU-1; first compound 4 µM,0.52
same,relative viability,A-427; first compound 0.04 µM,0.427
same,relative viability,A-427; first compound 0.1265 µM,0.295
same,relative viability,A-427; first compound 0.4 µM,0.285
same,relative viability,A-427; first compound 1.265 µM,0.31
same,relative viability,A-427; first compound 4 µM,0.298
same,relative viability,EMC-BAC-2; first compound 0.04 µM,0.511
same,relative viability,EMC-BAC-2; first compound 0.1265 µM,0.538
same,relative viability,EMC-BAC-2; first compound 0.4 µM,0.542
same,relative viability,EMC-BAC-2; first compound 1.265 µM,0.497
same,relative viability,EMC-BAC-2; first compound 4 µM,0.512
same,relative viability,NCI-H1755; first compound 0.04 µM,0.613
same,relative viability,NCI-H1755; first compound 0.1265 µM,0.577
same,relative viability,NCI-H1755; first compound 0.4 µM,0.661
same,relative viability,NCI-H1755; first compound 1.265 µM,0.596
same,relative viability,NCI-H1755; first compound 4 µM,0.603
same,relative viability,NCI-H2228; first compound 0.04 µM,0.364
same,relative viability,NCI-H2228; first compound 0.1265 µM,0.317
same,relative viability,NCI-H2228; first compound 0.4 µM,0.335
same,relative viability,NCI-H2228; first compound 1.265 µM,0.366
same,relative viability,NCI-H2228; first compound 4 µM,0.322
same,relative viability,NCI-H1355; first compound 0.04 µM,0.511
same,relative viability,NCI-H1355; first compound 0.1265 µM,0.419
same,relative viability,NCI-H1355; first compound 0.4 µM,0.444
same,relative viability,NCI-H1355; first compound 1.265 µM,0.431
same,relative viability,NCI-H1355; first compound 4 µM,0.401
same,relative viability,NCI-H23; first compound 0.04 µM,0.742
same,relative viability,NCI-H23; first compound 0.1265 µM,0.719
same,relative viability,NCI-H23; first compound 0.4 µM,0.78
same,relative viability,NCI-H23; first compound 1.265 µM,0.714
same,relative viability,NCI-H23; first compound 4 µM,0.748
